Results on 33 compounds are retold here after US5998521A, “Aqueous fluoropolymer compositions and method of preparing the same” (3M Innovative Properties Company, priority 1996, dated 1999).

Bounds are passed on as bounds.

The nature of data set [1]: Surface tension and critical micelle concentration of aqueous surfactant solutions. It is filed as physicochemical. The settings on record: deionized water; for Surf. Tens.: at the CMC. The procedure: Critical Micelle Concentration (CMC): The critical micelle concentration is defined as the concentration at which further surface tension is no longer lowered with increasing levels of surfactant. To determine CMC, surface tension is measured as a function of surfactant concentration using a K-12 Processor Tensiometer in conjunction with a 665 Dosimat automatic surfactant injection device (also commercially available from Kruss GmbH). Surface tension is then plotted vs. log concentration and the data points are connected. The resulting curve has a nearly horizontal flat portion at concentrations above the CMC and has a negative steep slope at concentrations below the CMC. The CMC is defined as the lowest surfactant concentration in the horizontal flat portion of the curve.
(§1) Then the critical micelle concentration (CMC) was determined for each surfactant.
as §1

Data set [2] in a line: Thermogravimetric analysis of neat perfluorocarboxylate salts. The format is physicochemical. The settings on record: neat salt, nitrogen, 10° C./min. The text has this:
Thermal degradation measurements were made on a series of neat perfluorocarboxylate salts, including several α-branched open chain structures (Examples N2-N9), a primarily linear open chain structure (Example N10-Fluorad™ FC-143 Fluorochemical Surfactant, commercially available from 3M Company, St. Paul, Minn.), and a closed chain (i.e., cyclic) structure (Example N11--made by the electrochemical fluorination of benzoic acid and hydrolysis in the presence of KOH, as described in U.S. Pat. No. 2,567,011 (Diesslin et al.)).
The perfluorocarboxylate salts were tested using a Perkin-Elmer TGA 7 thermogravimetric analysis apparatus and a salt sample size of approximately 5 mg, a heating rate of 10° C./min, and a nitrogen gas flow rate of 40-45 mL/min. Using the TGA 7 software, the following temperatures were recorded: (1) the onset temperature of decomposition, (2) the temperature at which 50% of the sample weight was lost, and (3) the temperature at which 90% of the sample weight was lost.

For `C[N+](C)([O-])CCCNC(=O)C(F)(C(F)(F)F)C(F)(F)C(F)(F)C(F)(F)C(F)(F)C(F)(F)C(F)(F)C(F)(F)F` (stereo not shown) [Example E1, C7 F15 CF(CF3)CONH(CH2)3 N^+ (CH3)2 O^-], in data set [1] (Table 3), the “Surf. Tens.” value stood at 16.3 dynes/cm and the CMC came out at 20 ppm.
In the case of `C[N+](C)([O-])CCCNC(=O)C(F)(C(F)(F)F)C(F)(F)C(F)(F)C(F)(F)C(F)(F)C(F)(F)F` (stereo not shown) [Example E2, C5 F11 CF(CF3)CONH(CH2)3 N^+ (CH3)2 O^-], in data set [1] (Table 3), the “Surf. Tens.” value is given as 17.5 dynes/cm and the CMC turned out to be 500 ppm.
In the case of `C[N+](C)([O-])CCCNC(=O)C(F)(C(F)(F)F)C(F)(F)C(F)(F)C(F)(F)C(F)(F)C(F)(F)C(F)(F)F` (stereo not shown) [Example E3, C6 F13 CF(CF3)CONH(CH2)3 N^+ (CH3)2 O^-], in data set [1] (Table 3), the “Surf. Tens.” value is recorded as 16.6 dynes/cm and the CMC is 100 ppm.
On the same counts, the results for `C[N+](C)([O-])CCCNC(=O)C(F)(C(F)(F)F)C(F)(F)C(F)(F)C(F)(F)C(F)(F)C(F)(F)C(F)(F)C(F)(F)C(F)(F)F` (stereo not shown) [Example E4, C8 F17 CF(CF3)CONH(CH2)3 N^+ (CH3)2 O^-] are 16.5 dynes/cm and 20 ppm.
For `C[N+](C)([O-])CCCNC(=O)C(F)(C(F)(F)F)C(F)(F)C(F)(F)C(F)(F)C(F)(F)C(F)(F)C(F)(F)C(F)(F)C(F)(F)C(F)(F)C(F)(F)F` (stereo not shown) [Example E5, C10 F21 CF(CF3)CONH(CH2)3 N^+ (CH3)2 O^-] the same measures were 17.1 dynes/cm and 500 ppm.
Regarding `C[N+](C)([O-])CCCN(CCO)C(=O)C(F)(C(F)(F)F)C(F)(F)C(F)(F)C(F)(F)C(F)(F)C(F)(F)C(F)(F)C(F)(F)F` (stereo not shown) [Example E8, C7 F15 CF(CF3)CON(C2 H4 OH)(CH2)3 N^+ (CH3)2 O^-], in data set [1] (Table 3), the “Surf. Tens.” value came to 16.6 dynes/cm and the CMC stood at 125 ppm.
On the same counts, the results for `O=C(NCCOC(=O)C(F)(C(F)(F)F)C(F)(F)C(F)(F)C(F)(F)C(F)(F)C(F)(F)C(F)(F)C(F)(F)F)c1cc[n+]([O-])cc1` (stereo not shown) [Example E10] are 14.5 dynes/cm and 400 ppm.
With `O=C(NCCOC(=O)C(F)(C(F)(F)F)C(F)(F)C(F)(F)C(F)(F)C(F)(F)C(F)(F)C(F)(F)F)c1cc[n+]([O-])cc1` (stereo not shown) [Example E11], in data set [1] (Table 3), the “Surf. Tens.” value was 15.5 dynes/cm and the CMC is listed as 1000 ppm.
For `O=C(OCCc1cccc[n+]1[O-])C(F)(C(F)(F)F)C(F)(F)C(F)(F)C(F)(F)C(F)(F)C(F)(F)C(F)(F)F` (stereo not shown) [Example E12] the same measures were 18.3 dynes/cm and 8000 ppm.
Turning to `O=C(OCCc1cccc[n+]1[O-])C(F)(C(F)(F)F)C(F)(F)C(F)(F)C(F)(F)C(F)(F)C(F)(F)C(F)(F)C(F)(F)F` (stereo not shown) [Example E13], in data set [1] (Table 3), the “Surf. Tens.” value is given as 15.0 dynes/cm and the CMC is reported as 6000 ppm.
In the case of `C[n+]1ccc(C(=O)NCCOC(=O)C(F)(C(F)(F)F)C(F)(F)C(F)(F)C(F)(F)C(F)(F)C(F)(F)C(F)(F)C(F)(F)F)cc1` (stereo not shown) [Example F1], in data set [1] (Table 3), the “Surf. Tens.” value was found to be 15.0 dynes/cm and the CMC is given as 500 ppm.
As for `C[n+]1ccc(C(=O)NCCOC(=O)C(F)(C(F)(F)F)C(F)(F)C(F)(F)C(F)(F)C(F)(F)C(F)(F)C(F)(F)F)cc1` (stereo not shown) [Example F2], in data set [1] (Table 3), the “Surf. Tens.” value is reported as 15.5 dynes/cm and the CMC worked out at 30 ppm.
As for `C[N+](C)(CCO)CCCNC(=O)C(F)(C(F)(F)F)C(F)(F)C(F)(F)C(F)(F)C(F)(F)C(F)(F)F` (stereo not shown) [Example F3], in data set [1] (Table 3), the “Surf. Tens.” value is listed as 17.0 dynes/cm and the CMC stood at 1000 ppm.
As for `C[N+](C)(CCO)CCCNC(=O)C(F)(C(F)(F)F)C(F)(F)C(F)(F)C(F)(F)C(F)(F)C(F)(F)C(F)(F)C(F)(F)F` (stereo not shown) [Example F4], in data set [1] (Table 3), the “Surf. Tens.” value is on record as 19.0 dynes/cm and the CMC is given as 300 ppm.
In the case of `O=C(NCCC[N+]1(CCO)CCOCC1)C(F)(C(F)(F)F)C(F)(F)C(F)(F)C(F)(F)C(F)(F)C(F)(F)C(F)(F)C(F)(F)F` (stereo not shown) [Example F5], the “Surf. Tens.” value in data set [1] (Table 3) is on record as 20.8 dynes/cm.
In the case of `CN(C)CCCN(CCCN(C)C)C(=O)C(F)(C(F)(F)F)C(F)(F)C(F)(F)C(F)(F)C(F)(F)C(F)(F)C(F)(F)C(F)(F)F` (stereo not shown) [Example F9, C7 F15 CF(CF3)CON[C3 H6 N^+ (CH3)2 H]2 2[-OOCCH3]], in data set [1] (Table 3), the “Surf. Tens.” value is reported as 22.0 dynes/cm and the CMC turned out to be 1000 ppm.
With `C[N+](C)(CCCNC(=O)C(F)(C(F)(F)F)C(F)(F)C(F)(F)C(F)(F)C(F)(F)C(F)(F)C(F)(F)C(F)(F)F)CCC(=O)[O-]` (stereo not shown) [Example K1, C7 F15 CF(CF3)CONH(CH2)3 N^+ (CH3)2C2 H4 COO^-], in data set [1] (Table 3), the “Surf. Tens.” value was 16.6 dynes/cm and the CMC is listed as 125 ppm.
In the case of `O=C([O-])CC[N+]1(CCCNC(=O)C(F)(C(F)(F)F)C(F)(F)C(F)(F)C(F)(F)C(F)(F)C(F)(F)C(F)(F)C(F)(F)F)CCOCC1` (stereo not shown) [Example K3], the “Surf. Tens.” value in data set [1] (Table 3) worked out at 19.2 dynes/cm.
Take `C[N+](C)(CCCN(CCC[N+](C)(C)CCC(=O)[O-])C(=O)C(F)(C(F)(F)F)C(F)(F)C(F)(F)C(F)(F)C(F)(F)C(F)(F)C(F)(F)C(F)(F)F)CCC(=O)[O-]` (stereo not shown) [Example K4]: in data set [1] (Table 3), the “Surf. Tens.” value was found to be 23.6 dynes/cm and the CMC worked out at 100 ppm.
For the compound `O=C(O)C(F)(C(F)(F)F)C(F)(F)C(F)(F)C(F)(F)C(F)(F)C(F)(F)F` (stereo not shown) [Example M15, C5 F11 CF(CF3)COO^- H4 N^+], in data set [2] (listed as N2), the “Temperature for: 50% loss” value turned out to be 178 °C, the “Temperature for: 90% loss” value amounted to 188 °C and the “Temperature for: Onset” value came to 166 °C. In addition, in data set [1] (Table 5), the “Surf. Tens.” value stood at 22.1 dynes/cm and the CMC was > 10000 ppm.
In the case of `O=C(O)C(F)(C(F)(F)C(F)(F)F)C(F)(F)C(F)(F)C(F)(F)C(F)(F)C(F)(F)C(F)(F)F` (stereo not shown) [Example M19, C6 F13 CF(C2 F5)COO^- H4 N^+], in data set [2], the “Temperature for: 50% loss” value is 171 °C, the “Temperature for: 90% loss” value worked out at 188 °C and the “Temperature for: Onset” value is 153 °C.
`O=C(O)C(F)(C(F)(F)F)C(F)(F)C(F)(F)C(F)(F)C(F)(F)C(F)(F)C(F)(F)C(F)(F)F` (stereo not shown) [Example M20, C7 F15 CF(CF3)COO^- H3 N^+ C2 H4 OH]: in data set [1] (Table 5), the “Surf. Tens.” value stood at 15.0 dynes/cm and the CMC is 500 ppm.
Consider `O=C(O)C(F)(C(F)(F)F)C(F)(F)C(F)(F)C(F)(F)C(F)(F)C(F)(F)C(F)(F)F` (stereo not shown) [Example M22, C6 F13 CF(CF3)COO^- K^+], for which, in data set [1] (Table 5), the “Surf. Tens.” value was 17.5 dynes/cm and the CMC amounted to 10000 ppm.
For the compound `O=C(O)C(F)(C(F)(F)F)C(F)(F)C(F)(F)C(F)(F)C(F)(F)C(F)(F)C(F)(F)C(F)(F)F` (stereo not shown) [Example M23, C7 F15 CF(CF3)COO^- K^+], in data set [1] (Table 5), the “Surf. Tens.” value is 15.0 dynes/cm and the CMC came to 2500 ppm.
For the compound `O=C(O)C(F)(C(F)(F)F)C(F)(F)C(F)(F)C(F)(F)C(F)(F)C(F)(F)C(F)(F)C(F)(F)C(F)(F)F` (stereo not shown) [Example M24, C8 F17 CF(CF3)COO^- K^+], in data set [1] (Table 5), the “Surf. Tens.” value amounted to 16.4 dynes/cm and the CMC was determined as 3000 ppm.
Turning to `O=C(O)C(F)(C(F)(F)F)C(F)(F)C(F)(F)C(F)(F)C(F)(F)C(F)(F)C(F)(F)F` (stereo not shown) [Example M25, C6 F13 CF(CF3)COO^- Na^+], in data set [1] (Table 5), the “Surf. Tens.” value worked out at 19.8 dynes/cm and the CMC stood at 10000 ppm.
For `O=C(O)C(F)(C(F)(F)F)C(F)(F)C(F)(F)C(F)(F)C(F)(F)C(F)(F)C(F)(F)C(F)(F)F` (stereo not shown) [Example M26, C7 F15 CF(CF3)COO^- Na^+] the same measures were 19.4 dynes/cm and 3000 ppm.
As for `O=C(O)C(F)(C(F)(F)F)C(F)(F)C(F)(F)C(F)(F)C(F)(F)C(F)(F)C(F)(F)C(F)(F)F` (stereo not shown) [Example M27, C7 F15 CF(CF3)COO^- Li^+], in data set [1] (Table 5), the “Surf. Tens.” value is 24.1 dynes/cm and the CMC is 3500 ppm.
For `O=C(O)C(F)(C(F)(F)F)C(F)(F)C(F)(F)C(F)(F)C(F)(F)C(F)(F)F` (stereo not shown) [Example M28, C5 F11 CF(CF3)COO^- Na^+], in data set [2] (listed as N8), the “Temperature for: 50% loss” value stood at 250 °C, the “Temperature for: 90% loss” value was 263 °C and the “Temperature for: Onset” value was 236 °C.
Turning to `O=C(O)C(F)(C(F)(F)F)C(F)(F)C(F)(F)C(F)(F)C(F)(F)C(F)(F)C(F)(F)C(F)(F)F` (stereo not shown) [Example M30, C7 F15 CF(CF3)COO^- 1/2[H3 N^+ C2 H4 NHC2 H4 N^+ H3]], in data set [1] (Table 5), the “Surf. Tens.” value is 16.2 dynes/cm and the CMC is given as 3000 ppm.
On to `O=C(O)C1(F)C(F)(F)C(F)(F)C(F)(F)C(F)(F)C1(F)F` [U.S. Pat. No. 2,567,011, reference compound], for which, in data set [2], the “Temperature for: 50% loss” value came to 110 °C, the “Temperature for: 90% loss” value was 120 °C and the “Temperature for: Onset” value worked out at 100 °C.
For the compound “C6 F13 CF(CF3)CON(C3 H6 SO3^-)(CH2)3 N^+ (CH3)2 H [Example K2]”, in data set [1] (Table 3), the “Surf. Tens.” value turned out to be 20.3 dynes/cm and the CMC was determined as 500 ppm.
For the compound “C8 F17 CF(CF3)CO(OCH2 CH2)16 OCH3 [Example J1]”, in data set [1] (Table 3), the “Surf. Tens.” value came to 22 dynes/cm and the CMC was 150 ppm.
